Legend:
EAE model of MS = test: T cell encephalitogenicity in adoptive transfer after in vitro treatment of the cells; format: in vivo; design: dose or concentration left out as unconfirmed; settings: cells activated 3 days, then transferred into naïve B10PL mice
Experimental: EAE Induction. Immunization: 8-10 week old B6/WT or SJL/WT mice were s.c. injected over four sites in the flank with 200 μg MOG 35-55 or […] (CS bio) in an emulsion with CFA (Difco). 200 ng pertussis toxin (List) per mouse in PBS was injected i.p. at the time of immunization and 48 h later. Adoptive transfer: Splenocytes were isolated from naïve 5-10-week-old Vα2.3/Vβ8.2 TCR transgenic mice and activated with 10 μg/ml of MBP Ac1-11 with or without rmIL-6 in 24-well plates at […] with irradiated B10.PL splenocytes (6×10^8 cells/well). After 72 hours, the cells were washed with PBS and 8×10^6 were injected i.p. into naïve B10.PL mice. Evaluation. The mice were evaluated daily for clinical signs of EAE. Mice were scored on scale of 0 to 6:0, no clinical disease; 1, limp/flaccid tail; 2, moderate hind limb weakness; 3. severe hind limb weakness; 4. complete hind limb paralysis; 5 quadriplegia or premoribund state; and 6, death.
DMSO was used as vehicle control. The cells were then adoptively transferred into naïve B10PL mice (disease incidence). Data are representative of multiple independent experiments.

[1] = tested on: splenocytes from naïve TCR transgenic mice; test: Cellular toxicity, trypan blue exclusion assay; format: cell-based; settings: 24 h, 48 h, 72 h; at the doses showing significant suppression of IL-17 production
Experimental: In vitro toxicity evaluation of new STAT3 prodrugs. Cellular toxicity testing was carried out using a trypan blue exclusion assay as described herein. FIGS. 6A-6C show representative data for cell viability after treatment with DMSO or the indicated concentration of the indicated representative prodrug at 24 h, 48 h, and 72 h post-treatment. The data were obtained using a trypan blue exclusion assay using splenocytes from naïve TCR transgenic mice that were cultured as described.

[2] = tested on: pSTAT3 in myelin-specific CD4 T cells; test: pSTAT3 levels in myelin-specific CD4 T cells (intracellular flow cytometry); format: cell-based, mice; settings: 0.250 μM; MBP Ac1-11 and IL-6 activation
Experimental: Intracellular staining and flow cytometric analysis. Flow cytometric analysis was performed to evaluate the expression of surface markers and T-bet in CD4 T cells, as previously described (Yang, Weiner et al. 2009). Briefly, splenocytes were activated with antigen or αCD3/CD28 for 48 to 72 hours. Cells were then collected, washed, and resuspended in staining buffer (1% BSA in PBS). The cells were incubated with mAbs to the cell-surface markers for 30 min at 4° C. After washing twice with staining buffer, cells were fixed and permeabilized using Cytofix/Cytoperm solution for 20 min at 4° C. Cells were stained for intracellular cytokines and T-bet for 30 min at 4° C. 80,000-100,000 live cell events were acquired on a FACSCanto (BD) and analyzed using FlowJo software (Tree Star, Inc.). PerCP-anti-CD4, and Pacific Blue-anti-CD44 were purchased from BD. PE-anti-PD-1, PE-Cy7-anti-IL-7Rα and Pacific Blue-anti-T-bet were purchased from Biolegend Biotechnology, Inc.
LLL12b suppresses pSTAT3 expression and IL-17 production in myelin-specific CD4 T cells in a dose-dependent manner. LLL21b was further tested to assess suppression of pSTAT3 expression in myelin-specific CD4 T cells. FIGS. 7A-7B show representative data for the effect of a representative disclosed compound, LLL12b, on IL-17 production, pSTAT3 levels, and cell viability under various conditions. […]

[3] = tested on: Teff cells from MS patients; test: CFSE-based Treg-mediated suppression assay on Teff cells from MS patients; format: cell-based, human; settings: 0.25 μM for 1-2 hrs; 3 treatment-naïve MS patients
Experimental: FIGS. 15A-15C show representative data for LLL12b enhancement of Treg-mediated suppression on Teff cells obtained from MS patients. PBMCs were obtained from three treatment-naïve MS patients and were activated with αhCD3/CD28 plus rhTGFβ, rhIL-2 and RA for 3 days to generate Tregs. Meanwhile, PBMCs from the same three MS patients were labeled with CFSE and cultured with 0.25 μM of LLL12b or DMSO for 1-2 hours. The LLL12b or DMSO treated CFSE-CD4 T cells were then mixed with Tregs generated from the same patient at different ratios and activated with αhCD3 for 5 days. Proliferation of Teff cells was determined by flow cytometric analysis of CFSE on CD4 T cells. Cells were gated on CD4+ cells.
LLL12b enhances Treg mediated suppression on Teff cells from MS patients. Since Teff cells from MS patients are resistant to Treg mediated suppression and IL-6/STAT3 signaling promotes the resistance of Teff in MS patient, we determined whether LLL12b may enhance the Treg-mediated suppression on Teff from MS patients using CFSE-based suppression assay. PBMCs from three treatment-naïve MS patients were labeled with CFSE and cultured with 0.25 μM of LLL12b or DMSO for 1-2 hrs. Then the CFSE-CD4 T cells were mixed with iTregs differentiated from the same patient at different ratio, and activated with αhCD3 for 5 days. […]

SMILES | T cell encephalitogenicity in adoptive transfer (EAE model of MS) | cellular toxicity (cell viability, trypan blue exclusion) [1] | pSTAT3 expression [2] | Treg mediated suppression on Teff cells (% suppression) [3]
NS(=O)(=O)c1cccc2c1C(=O)c1cccc(O)c1C2=O [LLL12] | inhibits T cell encephalitogenicity |  |  | 
CN(C)C(=O)Oc1cccc2c1C(=O)c1cccc(S(N)(=O)=O)c1C2=O [LLL12b] |  | minimal cellular toxicity | notably suppresses pSTAT3 expression | significantly increased
